From patent US11083195B2, “Insecticidal compositions and methods to kill insects” (priority 2019, dated 2021)
Read-outs that look alike come from different tables or passages of the source.

Legend:
Drosophila suzukii [1] = format: in vivo; settings: vial; for Statistical comparison of mortalities in words: second experiment, 7 days, log-rank pairwise comparisons (FIG. 3); for Mortality (%) of flies when fed different sugar formulations: Table 1, first experiment; for Mortality (%) of flies when fed different erythritol and sucralose formulations: Table 2, second experiment
Description: Materials and Methods. Flies and sugars: Drosophila suzukii used in these experiments were from a colony maintained at 22±5° C. under a photoperiod of L:D 16:8 h, and a relative humidity of 60±5% RH at the Horticultural Crops Research Unit, USDA ARS in Corvallis, Oreg. Wildtype flies collected from infested fruits in Corvallis, Oreg. were used to start the colony. Standard rearing methods and diet are described by Woltz, J. M., et al., Journal of Applied Entomology, 139:759-770 (2015). Newly emerged adult males and females were collected daily and maintained in cages with water and diet until they were specific ages for experimentation. Sugars used in this study, meso-erythritol (>99%), sucrose (>99%), and sucralose (>99%), were purchased from Fisher Scientific (Hampton, N.H.).
Different sugar formulations on the fly survivorship: Ten 5-day old flies (5 males and 5 females) were introduced into a plastic vial and given a tube (1.5 ml) containing different water-based solutions. Two combinations of erythritol (Ery) mixed with sucrose (Suc) or sucralose (Sul) were introduced to flies in a plastic vial for 7 days (FIG. 1). For the first experiment various pairs were tested (Table 1): Suc 0.5 M, Ery 0.5 M, Ery 1.5 M+Suc 0.5 M, and Ery 1.5 M+Suc 0.1 M. For the second experiment various pairs were tested (Table 2): Suc 0.5 M, Ery 0.5 M, Sul 0.5 M, Sul 0.1 M, Ery 1.5 M+Sul 0.5 M, Ery 1.5 M+Sul 0.1 M, Ery 2.0 M+Sul 0.1 M, and Ery 2.0 M+Sul 0.01 M. Survivorship of flies was checked daily for 7 days. Each pair per experiment was replicated at least three times.

Drosophila suzukii [2] = experiment: Fly mortality in the cage experiment; format: in vivo; settings: 7 days (FIG. 7)
Description: Materials and Methods. Flies and sugars: Drosophila suzukii used in these experiments were from a colony maintained at 22±5° C. under a photoperiod of L:D 16:8 h, and a relative humidity of 60±5% RH at the Horticultural Crops Research Unit, USDA ARS in Corvallis, Oreg. Wildtype flies collected from infested fruits in Corvallis, Oreg. were used to start the colony. Standard rearing methods and diet are described by Woltz, J. M., et al., Journal of Applied Entomology, 139:759-770 (2015). Newly emerged adult males and females were collected daily and maintained in cages with water and diet until they were specific ages for experimentation. […] Effect of erythritol formulations with sucrose or sucralose on fly mortality in the cage experiment: Two combinations of erythritol (Ery) mixed with sucrose (Suc) or sucralose (Sul) were introduced to ten flies in a cage (25 cm wide×25 cm deep×28 cm height) for 7 days (FIG. 6). […] The cage experiment shared similar results with both the vial and cup experiments (FIG. 2, FIG. 5, FIG. 7). In summary, the erythritol/sucralose formulation will not affect human health. The erythritol/sucralose formulation can be directly applied as an insecticide for insects such as Drosophila suzukii. […] The formulations can be used as a phagostimulant with conventional or biological insecticides. […]

## OC[C@@H](O)[C@@H](O)CO [Erythritol (Ery) 0.5M, meso-erythritol]
Drosophila suzukii [1]
  Statistical comparison of mortalities in words: statistically the same values
Drosophila suzukii [2]
  Statistical comparison of results in words: statistically similar

## OC[C@H]1O[C@H](O[C@]2(CCl)O[C@H](CCl)[C@@H](O)[C@@H]2O)[C@H](O)[C@@H](O)[C@H]1Cl [Sucralose (Sul) 0.5M, sucralose]
Drosophila suzukii [1]
  Statistical comparison of mortalities in words: statistically the same effect

## OC[C@H]1O[C@@](CO)(O[C@H]2O[C@H](CO)[C@@H](O)[C@H](O)[C@H]2O)[C@@H](O)[C@@H]1O [Sucrose (Suc) 0.5M, sucrose]
Drosophila suzukii [1]; Day1
  Mortality (%) of flies when fed different sugar formulations: 1.3%
Drosophila suzukii [1]; Day2
  Mortality (%) of flies when fed different sugar formulations: 1.3%
Drosophila suzukii [1]; Day3
  Mortality (%) of flies when fed different sugar formulations: 3.8%
Drosophila suzukii [1]; Day4
  Mortality (%) of flies when fed different sugar formulations: 5.0%
Drosophila suzukii [1]; Day5
  Mortality (%) of flies when fed different sugar formulations: 5.0%
Drosophila suzukii [1]; Day6
  Mortality (%) of flies when fed different sugar formulations: 6.3%
Drosophila suzukii [1]; Day7
  Mortality (%) of flies when fed different sugar formulations: 11.3%
Drosophila suzukii [1]; Day 1
  Mortality (%) of flies when fed different erythritol and sucralose formulations: 0.0%
Drosophila suzukii [1]; Day 2
  Mortality (%) of flies when fed different erythritol and sucralose formulations: 2.5%
Drosophila suzukii [1]; Day 3
  Mortality (%) of flies when fed different erythritol and sucralose formulations: 2.5%
Drosophila suzukii [1]; Day 4
  Mortality (%) of flies when fed different erythritol and sucralose formulations: 2.5%
Drosophila suzukii [1]; Day 5
  Mortality (%) of flies when fed different erythritol and sucralose formulations: 5.0%
Drosophila suzukii [1]; Day 6
  Mortality (%) of flies when fed different erythritol and sucralose formulations: 5.0%
Drosophila suzukii [1]; Day 7
  Mortality (%) of flies when fed different erythritol and sucralose formulations: 6.3%

## OC[C@H]1O[C@H](O[C@]2(CCl)O[C@H](CCl)[C@@H](O)[C@@H]2O)[C@H](O)[C@@H](O)[C@H]1Cl [Sul 0.1M, sucralose]
Drosophila suzukii [1]
  Statistical comparison of mortalities in words: statistically the same effect
